Assay results from patent US20090018131A1, “QUINAZOLINE DERIVATIVES AS P13 KINASE INHIBITORS” (priority 2007, published 2009).

Biological target: T1, PI3Kα (Homo sapiens, UniProt P42336)
T1 construct: His
Test: PI3K Alpha Leadseeker SPA Assay
Type: biochemical
Conditions: in at least one experimental run; read-out: IC50 value against PI3Kα
Procedure: Compounds of the present invention were tested according to the following assays and found as inhibitors of PI3 kinases, particularly PI3Kα. The exemplified compounds were tested and found active against PI3Kα. The IC50's ranged from about 1 nM to 10 μM.
SPA imaging beads are microspheres containing scintillant which emit light in the red region of the visible spectrum. As a result, these beads are ideally suited to use with a CCD imager such as the Viewlux. The Leadseeker beads used in this system are polystyrene beads that have been coupled with polyethyleneimine. When added to the assay mixture, the beads absorb both the substrate (PIP2) and product (PIP3). Adsorbed P^33—PIP3 will cause an increase in signal, measured as ADUs (analog to digital units). This protocol details the use of the PEI-PS Leadseeker beads for assays using His-p110/p85 PI3K alpha.
Solid compounds are typically plated with 0.1 μl of 100% DMSO in all wells (except column 6 and 18) of a 384-well, flat bottom, low volume plate (Greiner 784075). The compounds are serially diluted (3-fold in 100% DMSO) across the plate from column 1 to column 12 and column 13 to column 24 and leave column 6 and 18 containing only DMSO to yield 11 concentrations for each test compound.
The assay buffer contains MOPS (pH 6.5), CHAPS, and DTT. PI3K alpha and PIP2 (L-alpha-D-myo-Phosphatidylinositol 4,5-bisphosphate [PI(4,5)P2]3-O-phospho linked, D(+)-sn-1,2-di-O-octanoylglyceryl, CellSignals # 901) are mixed and incubated in the plate with compound for 30 min prior to starting the reaction with the addition of P^33-ATP and MgCl2 (reagents added using Zoom). Enzyme-free wells (column 18) are typically done to determine the low control. PEI-PS Leadseeker beads in PBS/EDTA/CHAPS are added (by Multidrop) to quench the reaction, and the plates are allowed to incubate for at least one hour (typically overnight) before centrifugation. The signal is determined using a Viewlux detector and is then imported into curve fitting software (Activity Base) for construction of concentration response curves. The percent inhibition of activity was calculated relative to high controls (C1, 0.1 μl DMSO in column 6, rows A-P)) and low controls (C2, 5 μl of 40 uM PIP2 in buffer in column 18, rows A-P) using, 100*(1-(U1-C2)/(C1-C2)). The concentration of test compound yielding 50% inhibition was determined using the equation, y=((Vmax*x)/(K+x))+Y2, where “K” was equal to the IC50. The IC50 values were converted to pIC50 values, i.e., −log IC50 in Molar concentration.

T1 sequence (P42336 whole entry, species assumed): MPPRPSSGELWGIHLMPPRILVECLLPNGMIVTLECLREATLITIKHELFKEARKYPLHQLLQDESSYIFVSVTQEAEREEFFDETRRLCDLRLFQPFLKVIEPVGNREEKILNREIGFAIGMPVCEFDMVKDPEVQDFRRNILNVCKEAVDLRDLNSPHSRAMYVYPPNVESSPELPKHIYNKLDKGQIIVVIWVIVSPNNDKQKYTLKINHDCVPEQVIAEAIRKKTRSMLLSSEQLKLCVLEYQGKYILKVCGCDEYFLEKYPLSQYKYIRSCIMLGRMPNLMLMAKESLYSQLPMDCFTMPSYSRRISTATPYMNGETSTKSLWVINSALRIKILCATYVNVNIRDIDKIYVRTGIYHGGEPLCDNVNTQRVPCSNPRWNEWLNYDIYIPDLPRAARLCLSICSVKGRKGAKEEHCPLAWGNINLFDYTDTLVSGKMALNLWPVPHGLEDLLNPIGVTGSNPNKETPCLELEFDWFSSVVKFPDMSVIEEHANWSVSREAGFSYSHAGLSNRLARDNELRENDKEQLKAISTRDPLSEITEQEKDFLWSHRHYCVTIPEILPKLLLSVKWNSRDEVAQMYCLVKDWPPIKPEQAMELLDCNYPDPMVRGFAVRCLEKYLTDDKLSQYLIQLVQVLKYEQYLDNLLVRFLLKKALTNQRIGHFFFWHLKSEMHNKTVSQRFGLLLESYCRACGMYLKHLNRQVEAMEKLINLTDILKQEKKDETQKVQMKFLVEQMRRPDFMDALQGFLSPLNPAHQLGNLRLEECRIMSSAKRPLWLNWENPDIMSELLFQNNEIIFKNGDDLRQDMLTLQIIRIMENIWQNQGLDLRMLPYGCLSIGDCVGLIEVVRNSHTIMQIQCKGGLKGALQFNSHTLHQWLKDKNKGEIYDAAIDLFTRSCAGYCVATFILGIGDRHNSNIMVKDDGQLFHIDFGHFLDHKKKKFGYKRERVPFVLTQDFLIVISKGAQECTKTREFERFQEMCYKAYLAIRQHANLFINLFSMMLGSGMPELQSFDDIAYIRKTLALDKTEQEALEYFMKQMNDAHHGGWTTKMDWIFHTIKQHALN
T1 sequence (P27986 whole entry partner, species assumed): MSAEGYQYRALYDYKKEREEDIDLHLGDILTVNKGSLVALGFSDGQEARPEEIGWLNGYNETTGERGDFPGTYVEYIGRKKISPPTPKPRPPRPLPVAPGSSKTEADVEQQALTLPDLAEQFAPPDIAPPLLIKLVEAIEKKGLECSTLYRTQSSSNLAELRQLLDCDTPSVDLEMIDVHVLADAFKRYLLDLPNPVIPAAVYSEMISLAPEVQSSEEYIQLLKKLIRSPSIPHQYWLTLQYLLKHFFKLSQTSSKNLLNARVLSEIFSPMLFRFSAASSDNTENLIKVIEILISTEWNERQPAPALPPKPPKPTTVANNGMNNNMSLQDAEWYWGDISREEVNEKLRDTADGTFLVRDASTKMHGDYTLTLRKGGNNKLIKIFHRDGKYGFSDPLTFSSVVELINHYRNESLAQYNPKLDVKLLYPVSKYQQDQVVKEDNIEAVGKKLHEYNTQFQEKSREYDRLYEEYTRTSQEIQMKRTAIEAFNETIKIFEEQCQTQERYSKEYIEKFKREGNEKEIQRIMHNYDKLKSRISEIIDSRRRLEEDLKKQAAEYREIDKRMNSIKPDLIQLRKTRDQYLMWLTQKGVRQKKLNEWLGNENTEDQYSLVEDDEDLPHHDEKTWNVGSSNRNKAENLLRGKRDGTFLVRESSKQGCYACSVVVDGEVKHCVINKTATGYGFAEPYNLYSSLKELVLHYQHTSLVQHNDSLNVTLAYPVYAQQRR

SMILES	IC50 [nM]
CN(C)S(=O)(=O)c1cc(-c2ccc3nc(NCCO)nc(-c4ccncc4)c3c2)cnc1N [Example 1, 2-amino-5-[2-[(2-hydroxyethyl)amino]-4-(4-pyridinyl)-6-quinazolinyl]-N,N-dimethyl-3-pyridinesulfonamide]	7.9
OCc1cccc(Nc2nc(-c3ccncc3)c3cc(-c4cnc5[nH]ccc5c4)ccc3n2)c1 [Example 2, (3-{[4-(4-pyridinyl)-6-(1H-pyrrolo[2,3-b]pyridin-5-yl)-2-quinazolinyl]amino}phenyl)methanol]	100
CC(=O)Nc1nc(-c2ccncc2)c2cc(-c3cnc(Cl)c(NS(=O)(=O)c4ccccc4)c3)ccc2n1 [Example 6, N-[6-{6-chloro-5-[(phenylsulfonyl)amino]-3-pyridinyl}-4-(4-pyridinyl)-2-quinazolinyl]acetamide]	1.4
CCN1CCN(c2ncnc3ccc(-c4cncc(NS(=O)(=O)c5ccc(F)cc5F)c4)cc23)CC1=O [Example 61, N-{5-[4-(4-ethyl-3-oxo-1-piperazinyl)-6-quinazolinyl]-3-pyridinyl}-2,4-difluorobenzenesulfonamide]	1
COc1ccc(Nc2ncnc3ccc(-c4cncc(NS(=O)(=O)c5ccc(F)cc5F)c4)cc23)cc1Cl [Example 73, N-[5-(4-{[3-chloro-4-(methyloxy)phenyl]amino}-6-quinazolinyl)-3-pyridinyl]-2,4-difluorobenzenesulfonamide]	2.5

Next, values leading:

IC50 [nM]	SMILES
50	c1nc(N2CCOCC2)c2cc(-c3cnc4[nH]ccc4c3)ccc2n1 [Example 15, 4-(4-morpholinyl)-6-(1H-pyrrolo[2,3-b]pyridin-5-yl)quinazoline]
40	NS(=O)(=O)c1cncc(-c2ccc3ncnc(N4CCCCC4)c3c2)c1 [Example 16, 5-[4-(1-piperidinyl)-6-quinazolinyl]-3-pyridinesulfonamide]
